Source: US5312816A, “Method of combatting osteoporosis in mammalian subjects, utilizing organic boron compounds” (priority 1993, dated 1994)
Like-named read-outs stand apart in the source and are kept apart here.

Key:
[1] = biological target: T1, Cathepsin D (Mus musculus, UniProt P18242); assay: Mouse hepatic lysosomal cathepsin D activity; assay type: biochemical
T1 construct: azocasein assay pH 5.0
Description: (§1) 1. Cf1 male mouse hepatic 10% homogenates in 0.25M sucrose+0.001MEDTA,pH 7.2.
(§2) Lysosomal Enzymes - free and total [triton X-100].
(§3) 2. Acid Cathepsin D -azocasein-pH 5.0, hydrolytic azo-peptide produce 366 nm.
Cathepsin azo casein activity -

[2] = biological target: T2, 5'-Lipoxygenase (Homo sapiens, UniProt P09917); assay: Human leukocyte 5'-lipoxygenase; assay type: cell-based
T2 construct: human leukocyte tissue culture cells; endogenous in cells; host or cells: Human peripheral leukocytes, RPMI-1788
T2 sequence (P09917 1-674): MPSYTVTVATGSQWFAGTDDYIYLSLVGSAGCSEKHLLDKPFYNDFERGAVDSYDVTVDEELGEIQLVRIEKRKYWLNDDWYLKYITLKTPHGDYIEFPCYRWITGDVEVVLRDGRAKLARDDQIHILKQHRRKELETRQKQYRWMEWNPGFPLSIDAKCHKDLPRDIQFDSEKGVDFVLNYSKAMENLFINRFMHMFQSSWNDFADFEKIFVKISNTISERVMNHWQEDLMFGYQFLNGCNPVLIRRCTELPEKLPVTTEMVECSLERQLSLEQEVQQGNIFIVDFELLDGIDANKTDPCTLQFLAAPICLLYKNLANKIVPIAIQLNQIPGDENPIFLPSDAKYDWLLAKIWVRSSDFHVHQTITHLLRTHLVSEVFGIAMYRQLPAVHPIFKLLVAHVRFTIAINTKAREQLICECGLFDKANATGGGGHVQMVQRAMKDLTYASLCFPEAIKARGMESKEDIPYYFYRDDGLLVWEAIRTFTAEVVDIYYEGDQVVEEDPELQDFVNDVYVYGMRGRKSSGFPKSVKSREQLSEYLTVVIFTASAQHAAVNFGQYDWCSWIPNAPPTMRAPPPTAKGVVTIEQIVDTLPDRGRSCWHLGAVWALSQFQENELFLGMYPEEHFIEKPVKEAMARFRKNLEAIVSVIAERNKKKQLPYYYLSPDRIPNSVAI

[3] = tested on: Cathepsin; assay: Human leukocyte cathepsin; assay type: cell-based; conditions: Table XIX; read-out: Human Leukocyte IC50 (head gives no enzyme; beside Cathepsin D)
Description: 5. Human peripheral leukocytes, RPMI-1788
as §3

[4] = tested on: Hydroxyproline; assay: Serum and urine hydroxyproline levels in vivo; conditions: Cf1 male mice, 8 mg/kg/day I.P. 14 days, N=6
[5] = tested on: Calcium; assay: Serum and urine calcium levels in vivo; conditions: Cf1 male mice, 8 mg/kg/day I.P. 14 days, N=6
[6] = tested on: Phosphorus; assay: Serum and urine inorganic phosphorus levels in vivo; conditions: Cf1 male mice, 8 mg/kg/day I.P. 14 days, N=6
[7] = tested on: Cf1 male mice; assay: Anti-inflammatory screen, Winter's test, 2% carrageenan hind foot; assay type: in vivo; conditions: Table XIV; unit inferred; unit assumed
Procedure: Anti-inflammatory Screen- Cf1 - male mice-Winter's Test 2% carrageenan S.C. plantar surface of hind foot, drugs administered @8 or 10 mg/kg I.P. 2X
Winter, C.A., et al, Proc. Soc.

[8] = tested on: Cf1 male mice; assay: Writhing reflex, 0.6% acetic acid; assay type: in vivo; conditions: Table XIV; unit inferred; unit assumed
Procedure: Writhing reflex- Cf1 -male mice- 0.6% acetic acid I.P. drugs administered @20 mg/kg/ I.P. 20 min. later - the # of stretches/10 min.
Hendershot, L.C., et al, J.

[9] = biological target: Acid phosphatase; assay: Mouse hepatic lysosomal acid phosphatase activity; assay type: biochemical; conditions: Table XV; mouse hepatic, 60 min incubation
Description: as §1, §2
1. Acid phosphatase -beta glycerol-3-phosphate, pH 5.0, released IP 720 nm.
Acid phosphatase activity -

[10] = biological target: Aryl sulphatase; assay: Mouse hepatic lysosomal aryl sulphatase activity; assay type: biochemical; conditions: Table XV, 60 min incubation
Description: as §1, §2
3. Aryl sulphatase- p-nitrocatechol sulfate, pH
5. 8 p-nitro-catechol product 510 nm.

[11] = tested on: Trypsin; assay: Mouse hepatic trypsin activity; assay type: biochemical; conditions: Table XVI; 60 min incubation; read-out: Mouse Hepatic Trypsin IC50
Description: as §1
1. Trypsin- N-benzoyl-L-arginine ethyl ester pH 8.0, hydrolytic product 253 nm.

[12] = biological target: T1, Cathepsin D; assay: Mouse macrophage cathepsin D activity; assay type: cell-based; conditions: Table XVII; mouse macrophage, 60 min incubation; read-out: Cathepsin D pH 5.0 IC50
Description: (§4) 3. Mouse macrophages J774A.1 BALB/c
as §3

[13] = biological target: Acid phosphatase; assay: Mouse macrophage acid phosphatase activity; assay type: cell-based; conditions: Table XVII; mouse macrophage, 60 min incubation; read-out: Acid Phosphatase IC50
[14] = biological target: Aryl sulphatase; assay: Mouse macrophage aryl sulphatase activity; assay type: cell-based; conditions: Table XVII; mouse macrophage, 60 min incubation; read-out: Aryl Sulphatase IC50
[15] = tested on: Trypsin; assay: Mouse macrophage trypsin (BAEE) activity; assay type: cell-based; conditions: Table XVIII; mouse macrophage, 60 min incubation; read-out: Trypsin BAEE IC50
[16] = biological target: Elastase; assay: Mouse macrophage elastase activity; assay type: cell-based; conditions: Table XVIII; mouse macrophage, 60 min incubation; read-out: Elastase IC50
Description: Elastase- N-succinyl-L-alanyl-L-alanine-p-nitroanilide, pH 8.0, p-nitro anilide 410 nm.

[17] = biological target: Prostaglandin cyclooxygenase; assay: Mouse macrophage prostaglandin cyclooxygenase activity; assay type: cell-based; conditions: Table XVIII; mouse macrophage, 60 min incubation; read-out: Prostaglandin Cyclooxygenase IC50
Description: as §4
Prostaglandin synthetase purified beef seminal vesicle ^3 H arachidonic acid (86.2 Ci/mmol), tlc separation.

[18] = tested on: Cf1 male mice; assay: Hot plate tail flick test; assay type: in vivo; conditions: Table XIV; unit not given
[19] = biological target: T3, Pg. cyclooxygenase (Sus scrofa, UniProt A0A287ANF9); assay: Porcine seminal vesicles Pg. cyclooxygenase; assay type: biochemical; conditions: Table XVI; 60 min incubation
T3 construct: Porcine Seminal; from tissue; the methods section prints beef seminal vesicle

[20] = biological target: Commercial Collagenase; assay: Commercial collagenase (type not stated); assay type: biochemical; conditions: Table XVI; 60 min incubation
Description: 3. Collagenase I, Clostridium histolyticum, bone, skin, tendon, blood vessel, dentine, GI. substrate: rat collagen, N-[propionate-2-3-^3 H] propionylated measured as dpm released.
4. Collagenase II, Clostridium histolyticum, cartilage collagen.

[21] = read-out: Mouse Hepatic Cathepsin D IC50, Table XIX

T1 sequence (P18242 65-410): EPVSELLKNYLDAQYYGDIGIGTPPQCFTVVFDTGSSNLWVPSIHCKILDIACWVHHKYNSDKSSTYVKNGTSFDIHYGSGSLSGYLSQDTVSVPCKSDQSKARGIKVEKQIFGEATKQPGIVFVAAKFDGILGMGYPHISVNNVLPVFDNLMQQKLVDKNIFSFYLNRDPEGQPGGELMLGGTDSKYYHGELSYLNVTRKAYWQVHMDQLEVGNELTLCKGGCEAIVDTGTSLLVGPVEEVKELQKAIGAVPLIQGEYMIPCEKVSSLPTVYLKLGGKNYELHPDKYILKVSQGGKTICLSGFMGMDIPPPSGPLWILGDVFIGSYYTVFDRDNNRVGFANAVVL
T3 sequence (A0A287ANF9 25-600): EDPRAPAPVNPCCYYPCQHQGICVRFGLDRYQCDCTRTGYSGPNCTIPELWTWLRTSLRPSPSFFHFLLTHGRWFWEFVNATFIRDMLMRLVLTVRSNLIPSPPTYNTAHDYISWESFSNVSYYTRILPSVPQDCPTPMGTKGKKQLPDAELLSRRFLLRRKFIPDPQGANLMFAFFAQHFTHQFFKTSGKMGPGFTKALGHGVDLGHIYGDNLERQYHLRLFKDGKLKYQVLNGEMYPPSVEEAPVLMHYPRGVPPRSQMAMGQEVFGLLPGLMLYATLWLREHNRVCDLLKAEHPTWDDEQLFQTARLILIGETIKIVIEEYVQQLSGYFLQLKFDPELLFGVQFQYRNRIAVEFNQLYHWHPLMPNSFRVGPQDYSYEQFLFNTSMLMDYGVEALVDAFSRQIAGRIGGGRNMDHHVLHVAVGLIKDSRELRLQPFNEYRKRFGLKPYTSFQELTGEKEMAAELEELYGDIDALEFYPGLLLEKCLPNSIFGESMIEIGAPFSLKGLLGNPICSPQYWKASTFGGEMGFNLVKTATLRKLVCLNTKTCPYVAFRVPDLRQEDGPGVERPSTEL

SMILES | IC50 [1, 21] | IC50 [2] | IC50 [3] | Hydroxyproline serum [4] | Hydroxyproline urine [4] | Calcium serum [5] | Calcium urine [5] | Phosphorus serum [6] | Phosphorus urine [6] | also measured
CC(C)[Si](OC[C@H]1O[C@@H](n2cnc3c(N)ncnc32)C[C@@H]1O[Si](C(C)C)(C(C)C)C(C)C)(C(C)C)C(C)C [Compound 35] | 58.1 µM | 10.1 µM | 33.4 µM | – | – | – | – | – | – | –
COC(=O)[BH2-][NH+](C)C [(CH3)2 NHBH2 COOCH3, Dimethylamine-carbomethoxyborane] | – | – | – | 84.4 % Control | 50.5 % Control | 125.4 % Control | 80.7 % Control | 42.8 % Control | 67.8 % Control | –
CC#N.CO.CO.CO.C[N+](C)(C)[BH2-]C(=O)[O-].C[N+](C)(C)[BH2-]C(=O)[O-].C[N+](C)(C)[BH2-]C(=O)[O-].C[N+](C)(C)[BH2-]C(=O)[O-].C[N+](C)(C)[BH2-]C(=O)[O-].C[N+](C)(C)[BH2-]C(=O)[O-].O=[N+]([O-])[O-].[Fe+3].[Fe+3].[Fe+3].[O-2] [Compound 24] | – | – | – | – | – | – | – | – | – | Anti-Inflammation Cf1 Mice [7]: 81.6%; Writhing Reflex Mice [8]: 42.9%; IC50 [9]: 5.6 µM; IC50 ([1]; Table XV, mouse hepatic, 60 min incubation, read-out: Cathepsin D IC50): 6.84 µM; IC50 [10]: 2570 nM; IC50 [11]: 9.93 µM; IC50 [12]: 2850 nM; IC50 [13]: 2090 nM; IC50 [14]: 1950 nM; IC50 [15]: 2370 nM; IC50 [16]: 3.92 µM; IC50 [17]: 2340 nM; Tail Flick Mice [18]: 338; IC50 [19]: 2900 nM; IC50 [20]: 478 µM
CC(C)[Si](OC[C@H]1O[C@@H](n2ccc(N)nc2=O)C[C@@H]1O[Si](C(C)C)(C(C)C)C(C)C)(C(C)C)C(C)C [Compound 38] | 59.7 µM | 7.72 µM | 13.9 µM | – | – | – | – | – | – | –
C[NH2+][BH2-]C(=O)OC [CH3 NH2 BH2 COOCH3, Methylamine-carbomethoxyborane] | – | – | – | 68.0 % Control | 144.1 % Control | 105.1 % Control | 176.9 % Control | 65.3 % Control | 136.8 % Control | –
N#C[BH2-][n+]1c(N)ccn([C@H]2C[C@H](O)[C@@H](CO)O2)c1=O [Compound 39, 2'-Deoxycytidine-N3-cyanoborane] | – | – | 8.72 µM | – | – | – | – | – | – | IC50 ([1]; Table XIX, read-out: Mouse Hepatic Cathepsin D IC50): 26 µM; IC50 ([2]; Table XIX, read-out: Leukocyte 5' lipoxygenase IC50): 12.8 µM
